Results reported in patent US7893025B2, “Use of growth hormone releasing factor analogs in treating patients suffering from wasting” (Theratechnolgies Inc., priority 2003, dated 2011).

Experiment: Adverse events and safety laboratory parameters; discontinuations
Type: in vivo, human
Conditions: 2 mg group, following 1 month of treatment
Procedure: The results presented herein were obtained from a multicentre, randomized, double-blind, placebo-controlled study. The compound TH9507 was administered by subcutaneous injection daily (1 or 2 mg dose) for a three-month period. Patients were of both genders, aged 50 years or older, with stable COPD as per the 1995 American Thoracic Society criteria.
Adverse events and safety laboratory parameters (haematology, biochemistry, urinalysis) were measured using standard laboratory methods.

Which “Discontinuation possibly related to study drug” value does the source give for `CC/C=C/CC(=O)N[C@@H](Cc1ccc(O)cc1)C(=O)N[C@@H](C)C(=O)N[C@@H](CC(=O)O)C(=O)N[C@@H](C)C(=O)N[C@H](C(=O)N[C@@H](Cc1ccccc1)C(=O)N[C@H](C(=O)N[C@@H](CC(N)=O)C(=O)N[C@@H](CO)C(=O)N[C@@H](Cc1ccc(O)cc1)C(=O)N[C@@H](CCCNC(=N)N)C(=O)N[C@@H](CCCCN)C(=O)N[C@H](C(=O)N[C@@H](CC(C)C)C(=O)NCC(=O)N[C@@H](CCC(N)=O)C(=O)N[C@@H](CC(C)C)C(=O)N[C@@H](CO)C(=O)N[C@@H](C)C(=O)N[C@@H](CCCNC(=N)N)C(=O)N[C@@H](CCCCN)C(=O)N[C@@H](CC(C)C)C(=O)N[C@@H](CC(C)C)C(=O)N[C@@H](CCC(N)=O)C(=O)N[C@@H](CC(=O)O)C(=O)N[C@H](C(=O)N[C@@H](CCSC)C(=O)N[C@@H](CO)C(=O)N[C@@H](CCCNC(=N)N)C(=O)N[C@@H](CCC(N)=O)C(=O)N[C@@H](CCC(N)=O)C(=O)NCC(=O)N[C@@H](CCC(=O)O)C(=O)N[C@@H](CO)C(=O)N[C@@H](CC(N)=O)C(=O)N[C@@H](CCC(N)=O)C(=O)N[C@@H](CCC(=O)O)C(=O)N[C@@H](CCCNC(=N)N)C(=O)NCC(=O)N[C@@H](C)C(=O)N[C@@H](CCCNC(=N)N)C(=O)N[C@@H](C)C(=O)N[C@@H](CCCNC(=N)N)C(=O)N[C@@H](CC(C)C)C(N)=O)[C@@H](C)CC)C(C)C)[C@@H](C)O)[C@@H](C)CC` [TH9507, (hexenoyl trans-3)hGRF(1-44)NH2] here?
Its value is “one patient in the 2 mg group who showed elevated creatine phosphokinase (CPK) and serum glutamic oxaloacetic transaminase (SGOT) values”.
